Patent US20250154174A1, “BICYCLIC HETEROCYCLES AS MRGPRX2 ANTAGONISTS” (Incyte Corporation, priority 2023, published 2025)
pIC50: −log10 of the molar value.

Key:
Format in all cases: cell-based
MRGPRX2 [1] = target: T1, MRGPRX2 (Homo sapiens, UniProt Q96LB1); assay: MRGPRX2 β-Arrestin assay; set-up: host or cells: PathHunter CHO-K1; conditions: PathHunter CHO-K1 MRGPRX2 β-Arrestin cell line; agonist Cortistatin 14 0.25 μM
T1 sequence (Q96LB1 1-330): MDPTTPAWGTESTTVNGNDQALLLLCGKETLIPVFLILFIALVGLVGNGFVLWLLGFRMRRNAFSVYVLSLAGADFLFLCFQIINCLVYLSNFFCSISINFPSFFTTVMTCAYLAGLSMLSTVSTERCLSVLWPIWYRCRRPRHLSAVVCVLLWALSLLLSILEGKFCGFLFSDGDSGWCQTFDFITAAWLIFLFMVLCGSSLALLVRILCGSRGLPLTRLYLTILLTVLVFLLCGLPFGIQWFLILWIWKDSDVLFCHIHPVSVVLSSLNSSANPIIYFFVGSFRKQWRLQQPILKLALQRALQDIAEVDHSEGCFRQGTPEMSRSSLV
Description: This assay measures compound inhibition of β-Arrestin recruitment, which is part of the G protein-independent pathway that results from the ligand-activated GPCR phosphorylation by specific GPCR kinases. The PathHunter CHO-K1 MRPGRX2 B-Arrestin Cell line stably expressing ProLink tagged MRGPRX2 and Enzyme Acceptor Tagged B-Arrestin was purchased from Eurofins DiscoverX, (Fremont, CA).
The cells were maintained in culture medium from the Europhins DiscoverX Cell Culture Kit-107 which includes FBS, hygromycin B and G418. For the assay, the cells were harvested and were resuspended with Cell Plating Reagent 2 (Eurofins DiscoverX). Cells were added 10000 cells in 25 μL/well to a 384-well black cell culture plate (Greiner VWR, Radnor, PA) which contained 125 nL/well of compound at a selected serially diluted concentration range or DMSO. The plate was incubated at 37° C. with 5% CO2 for 1 h. 2 μL/well of agonist Cortistatin 14 was diluted in Protein Dilution Buffer, (Eurofins DiscoverX) for a final concentration of 0.25 μM, was added and the plate was incubated at 37° C. with 5% CO2 for 90 min. 14 μL/well of Detection Reagent Mix (PathHunter Detection Kit, Eurofins DiscoverX) was added to the plates and further incubated for 1 h in the dark. Plates were read on the PHERAstar microplate reader (BMG Labtech Cary, NC) measuring luminescence 0.1 to 1 s per well. […]

MRGPRX2 [2] = target: T1, MRGPRX2; assay: MRGPRX2 IP1 HTRF assay; set-up: host or cells: CHO-K1; conditions: CHO-K1 cells stably expressing human MRGPRX2; agonist Cortistatin 14 1 μM; IP1 accumulation
Experimental: This assay measures compound inhibition of myo-Inositol 1 phosphate (IP1) accumulation in CHO-K1 cells. Chinese hamster ovary (CHO-K1) cells stably expressing human MRGPRX2 were purchased from GenScript (Piscataway, NJ).
For the HTRF IP1 determination, an IP-One GqKit (Perkin Elmer Cisbio, Waltham, MA), which includes all reagents and buffers in this protocol, was used. The cells were maintained in culture medium (Ham's F-12K) containing 10% (v/v) FBS, and 200 μg/mL Zeocin. For the assay, the cells were harvested and resuspended in culture medium with 2% FBS and without Zeocin, then were passed through a 40 μm filter. Cells were added at 20000 cells in a 5 μL/well to a 384-well white small volume cell culture plate (Greiner VWR, Radnor, PA) which contained 50 nL/well of test compound serially diluted at a selected concentration range in DMSO. 5 μL/well of prepared 2× Stimulation Buffer2 was then added to plates and was incubated at 37° C. with 5% CO2 for 1 h. 5 μL/well of agonist Cortistatin 14 (Bio-TechneR&D Systems, Minneapolis, MN) in 1×Stimulation Buffer 2, for a 1 μM final concentration, was then added to plates and incubated at 37° C. with 5% CO2 for 1 h. 6 μL/well of 1:20 diluted Detection Reagent Mix (d2 and Cryptate) was added to the plates and incubated for 1 h in the dark. Plates were read on the PHERAstar microplate reader (BMG Labtech Cary, NC) to determine the HTRF ratio of the acceptor and donor emission signals. The IP1 concentrations were calculated from a standard curve following the IP-One GQ kit instructions. Wells with DMSO only and wells with high concentration of reference antagonist were used as controls for normalization. Compound IC50 curves were globally fitted with 3- or 4-parameter Hill equation in a Genedata Screener (Genedata Basel, Switzerland).

MRGPRX2 [3] = target: T1, MRGPRX2; assay: MRGPRX2 FLIPR calcium mobilization assay; set-up: host or cells: CHO-K1; conditions: CHO-K1 cells stably expressing human MRGPRX2; agonist Cortistatin-14 at EC80; Ca2+ release
Experimental: Chinese hamster ovary (CHO-K1) cells stably expressing human MRGPRX2 were purchased from Genescript (Piscataway, NJ). The cells were maintained in culture medium (Ham's F-12K) containing 10% (v/v) FBS, 200 μg/mL Zeocin, 100 units/mL penicillin G and 100 μg/mL streptomycin (Life Technologies, Carlsbad, CA). For the assay, the cells were harvested and resuspended with culture medium without Zeocin before plating at 8000 cells per well in 20 μL in 384-well black clear bottom cell culture plates (VWR, Radnor, PA). After 24 h culture at 37° C. and 5% CO2, the cells were loaded with 20 μL/well of calcium dye (FLIPR Calcium 6 Assay Kit, Molecular Devices, San Jose, CA) diluted in loading buffer (1× Hank's Balanced Salt Solution (HBSS), 5 mM probenecid, 20 mM 4-(2-hydroxyethyl)-1-piperazineethanesulfonic acid (HEPES), pH 7.4, VWR, Radnor, PA) followed with 45 min. incubation at 37° C. and 40 min. at r.t. in the dark. Cells were then treated with the addition of 10 uL/well test compounds with a range of increasing concentrations diluted in the assay buffer (1×HBSS, 20 mM HEPES, pH 7.4, VWR, Radnor, PA) with FLIPR Penta (Molecular Devices. San Jose, CA) and incubated for 30 min. at r.t. Ca^2+ release was measured with FLIPR Penta with 10 s basal fluorescence measurement, then 12.5 μL of 5× agonist Cortistatin-14 (Tocris, Minneapolis, MN) at final concentration corresponding to the EC80 were added followed with continued fluorescence signal monitoring for an additional 110 s. The base line adjusted (median of first 10s base line) max value of the Relative Fluorescence Unit (RFU) was plotted against compound concentrations. Wells with no compound were served as the positive controls, and wells with high concentration of reference antagonist were used as negative controls. IC50 curves were globally fitted with 3- or 4-parameter Hill equation in a Genedata Screener (Genedata Basel, Switzerland).

Measured: pIC50

FC(F)(F)c1cn2c(N[C@H]3CCC[C@@H](Nc4nccc5ncccc45)C3)cccc2n1 [Example 3, (1R,3S)—N^1-(1,6-Naphthyridin-5-yl)-N^3-(2-(trifluoromethyl)imidazo[1,2-a]pyridin-5-yl)cyclohexane-1,3-diamine]
7.00 to 10.00: all assays above

FC(F)(F)c1cn2c(N[C@H]3CC[C@@H](Nc4nccn5cncc45)CC3)cccc2n1 [Example 5, (1s,4s)-N^1-(Imidazo[1,5-a]pyrazin-8-yl)-N^4-(2-(trifluoromethyl)imidazo[1,2-a]pyridin-5-yl)cyclohexane-1,4-diamine]
7.00 to 10.00: all assays above
